Data on nine compounds can be found in ChEMBL document CHEMBL3046732, “Synthesis and biological evaluation of new [1,3,4]thiadiazepino[7,6-b]quinolin-2-amines as potent anti-microbial agents” (2013).

In one test the test system is Aspergillus niger. Put plainly: Antimicrobial activity against Aspergillus niger assessed as growth inhibition by microdilution method. In kind it is functional.
A further test relates to Alternaria alternata. The test can be described thus: Antimicrobial activity against Alternaria alternata assessed as growth inhibition by microdilution method. In kind it is functional.
The subject of a further test is Curvularia australiensis. The test can be described thus: Antimicrobial activity against Curvularia australiensis assessed as growth inhibition by microdilution method. It counts as functional.
A further test has as its system Salmonella typhimurium. The test can be described thus: Antimicrobial activity against Salmonella enterica subsp. enterica serovar Typhimurium assessed as growth inhibition by microdilution method.
The test system of the next test is Streptococcus pyogenes. Put plainly: Antimicrobial activity against Streptococcus pyogenes assessed as growth inhibition by microdilution method.
The subject of the next test is Escherichia coli. The test can be described thus: Antimicrobial activity against Escherichia coli assessed as growth inhibition by microdilution method.
The test system of the next test is Trichoderma reesei. Put plainly: Antimicrobial activity against Trichoderma reesei assessed as growth inhibition by microdilution method. In kind it is functional.
A further test has as its system Staphylococcus aureus. Put plainly: Antimicrobial activity against Staphylococcus aureus assessed as growth inhibition by microdilution method.
In the next test the test system is Bacillus subtilis. The test can be described thus: Antimicrobial activity against Bacillus subtilis assessed as growth inhibition by microdilution method.
Another test relates to Aspergillus flavus. The test can be described thus: Antimicrobial activity against Aspergillus flavus assessed as growth inhibition by microdilution method. It counts as functional.
In the next test the test system is Klebsiella aerogenes. Put plainly: Antimicrobial activity against Enterobacter aerogenes assessed as growth inhibition by microdilution method.

Take `COc1ccc2nc3c(cc2c1)C=NN=C(Nc1ccccc1F)S3`: the MIC in the test on Aspergillus niger is 500 µg/mL; with Alternaria alternata it was 125 µg/mL; in the test with Curvularia australiensis, 500 µg/mL; with Salmonella typhimurium, more than 1000 µg/mL; in the test on Streptococcus pyogenes, 500 µg/mL; in the test on Escherichia coli, 1000 µg/mL. For the same compound, the MIC in the test on Trichoderma reesei was 250 µg/mL; with Staphylococcus aureus, 500 µg/mL; in the test on Bacillus subtilis, 1000 µg/mL; in the test on Aspergillus flavus it was 500 µg/mL; in the test with Klebsiella aerogenes it was more than 1000 µg/mL.

`Cc1ccc2nc3c(cc2c1)C=NN=C(Nc1ccc(Cl)cc1)S3`: the MIC with Aspergillus niger is 500 µg/mL; in the test on Alternaria alternata, 30 µg/mL; in the test on Curvularia australiensis, 500 µg/mL; with Salmonella typhimurium, more than 1000 µg/mL; in the test with Streptococcus pyogenes it was more than 1000 µg/mL; in the test with Escherichia coli, more than 1000 µg/mL. Further, the MIC in the test with Trichoderma reesei amounted to 500 µg/mL; in the test on Staphylococcus aureus, 1000 µg/mL; with Bacillus subtilis it was 1000 µg/mL; in the test with Aspergillus flavus it was 1000 µg/mL; in the test with Klebsiella aerogenes it was 1000 µg/mL.

As for `COc1ccc2nc3c(cc2c1)C=NN=C(Nc1ccccc1Cl)S3`, the MIC in the test with Aspergillus niger was 500 µg/mL; in the test on Alternaria alternata it was 500 µg/mL; in the test with Curvularia australiensis, 500 µg/mL; with Salmonella typhimurium, 60 µg/mL; with Streptococcus pyogenes, 30 µg/mL; in the test with Escherichia coli, 500 µg/mL. Also, the MIC with Trichoderma reesei is 500 µg/mL; with Staphylococcus aureus it was 1000 µg/mL; in the test with Bacillus subtilis, 30 µg/mL; in the test with Aspergillus flavus, 500 µg/mL; in the test with Klebsiella aerogenes it was 125 µg/mL.

As for `Cc1ccccc1NC1=NN=Cc2cc3cccc(C)c3nc2S1`, the MIC turned out to be 500 µg/mL with Aspergillus niger; 1000 µg/mL with Alternaria alternata; 500 µg/mL in the test with Curvularia australiensis; 1000 µg/mL in the test with Salmonella typhimurium; 1000 µg/mL in the test on Streptococcus pyogenes; 1000 µg/mL with Escherichia coli. The minimal inhibitory concentration (MIC) stood at 125 µg/mL in the test on Trichoderma reesei; 1000 µg/mL with Staphylococcus aureus; 1000 µg/mL in the test with Bacillus subtilis; 125 µg/mL in the test on Aspergillus flavus; 1000 µg/mL with Klebsiella aerogenes.

`Cc1ccc2nc3c(cc2c1)C=NN=C(Nc1c(C)cccc1C)S3`: the MIC amounted to 1000 µg/mL in the test with Aspergillus niger; 500 µg/mL in the test with Alternaria alternata; 1000 µg/mL with Curvularia australiensis; 1000 µg/mL with Salmonella typhimurium; 1000 µg/mL in the test with Streptococcus pyogenes; 1000 µg/mL in the test with Escherichia coli. Besides, the MIC with Trichoderma reesei came to 250 µg/mL; with Staphylococcus aureus, 1000 µg/mL; with Bacillus subtilis it was 1000 µg/mL; in the test with Aspergillus flavus, 1000 µg/mL; in the test with Klebsiella aerogenes, 1000 µg/mL.

`Cc1ccc2nc3c(cc2c1)C=NN=C(Nc1cccc(Cl)c1)S3`: the MIC with Aspergillus niger was 1000 µg/mL; in the test with Alternaria alternata it was 500 µg/mL; in the test with Curvularia australiensis, 1000 µg/mL; in the test on Salmonella typhimurium, 1000 µg/mL; in the test on Streptococcus pyogenes, more than 1000 µg/mL; with Escherichia coli it was 1000 µg/mL. In addition, the MIC came to 500 µg/mL with Trichoderma reesei; 1000 µg/mL in the test with Staphylococcus aureus; 1000 µg/mL in the test with Bacillus subtilis; 1000 µg/mL in the test on Aspergillus flavus; 250 µg/mL in the test with Klebsiella aerogenes.

Turning to `Cc1ccc2nc3c(cc2c1)C=NN=C(NCc1ccccc1)S3`, the MIC in the test on Aspergillus niger, in the test with Alternaria alternata, in the test with Curvularia australiensis, in the test with Salmonella typhimurium, in the test on Streptococcus pyogenes and in the test with Escherichia coli was 1000 µg/mL throughout. In addition, the MIC in the test with Trichoderma reesei is 500 µg/mL; in the test on Staphylococcus aureus, 1000 µg/mL; with Bacillus subtilis, 1000 µg/mL; in the test on Aspergillus flavus, more than 1000 µg/mL; with Klebsiella aerogenes, 1000 µg/mL.

In the case of `COc1ccc2nc3c(cc2c1)C=NN=C(Nc1c(C)cccc1C)S3`, the minimal inhibitory concentration (MIC) amounted to 1000 µg/mL with Aspergillus niger; 1000 µg/mL in the test with Alternaria alternata; 500 µg/mL with Curvularia australiensis; 500 µg/mL in the test on Salmonella typhimurium; 500 µg/mL with Streptococcus pyogenes; 500 µg/mL in the test with Escherichia coli. Also, the MIC was 500 µg/mL in the test with Trichoderma reesei; 1000 µg/mL in the test on Staphylococcus aureus; 1000 µg/mL with Bacillus subtilis; 500 µg/mL in the test with Aspergillus flavus; 500 µg/mL in the test with Klebsiella aerogenes.

Turning to `O=C(N[C@H](CO)[C@H](O)c1ccc([N+](=O)[O-])cc1)C(Cl)Cl` [CHLORAMPHENICOL], the minimal inhibitory concentration (MIC) in the test with Salmonella typhimurium, in the test with Streptococcus pyogenes, with Escherichia coli, in the test with Staphylococcus aureus, in the test with Bacillus subtilis and with Klebsiella aerogenes was 1000 µg/mL in each case.
